A short description of data set [1]: Oil/water partition coefficient from flooding experiment on silica-packed column at residual oil saturation. The settings on record: 80° C., oil 2 and water 2. The format is physicochemical. The method, then: Structural formulas of examples of compounds from four groups of fluorinated benzyl alcohols tested are shown herein, including in FIG. 1. The compounds could be analyzed using gas chromatography with mass spectrometric detection (GC-MS) in produced water after clean-up and pre-concentration of the water samples. Detection limits of 50 ng/l (ppt) could be obtained depending on the level of interferences from the sample matrix. Several compounds from the four groups were selected and tested for thermal stability, flooding properties, and adsorption to rock materials. In addition, two pilot field tests were initiated. Some results from the laboratory tests are shown in Table 1 and in FIG. 2 to FIG. 10. Partition coefficients were measured at 80° C., oil 2 and water 2.
A still further feature of the benzyl alcohol compounds used in the various aspects of the present invention is their highly suitable partition coefficients. For example, compounds of formula i) or preferred compounds as described herein may have partition coefficients between 1.0 and 8.0. The partition coefficients should not be too high because the partitioning tracers then will be retained too much compared to the passive water tracer. Preferable values for the partition coefficients will be between 1.2 and 7, preferably between 1.3 and 5. In all cases referred to herein partition coefficients are measured at 80° C., oil 2 and water 2, unless otherwise stated.
To test the dynamic properties of the tracer candidate an experimental setup containing a residual oil saturated column was used. […] The column was packed with 70 μm silica beads. Dead crude oil was pumped through the column after which artificial formation water was pumped through the system until residual oil saturation was reached. The tracer candidate was then co-injected with tritiated water (HTO) as a pulse into the water flow. The experiments were conducted with different oil types, different water compositions and at several temperatures.

Data set [2] in a line: Biodegradability in seawater (OECD 306). The method, then: Tracers must be stable in the harsh reservoir environment, thus their results in the seawater biodegradation component of the HOCNF scheme “OECD (306 1999) guideline for testing chemicals, biodegradation in seawater” often show less than 20% biodegradation ensuring that they automatically are placed in the red category.
(§1) The most important environmental properties were tested on several example compounds. These are biodegradability in seawater and toxicity screening for Skeletonema Costatum. The latter gives a good general indication of the total toxicity of a chemical and in combination with the biodegradability gives a strong indication of the total impact of the environment.

In data set [3] the test system is Skeletonema Costatum. The data set is described as follows: Toxicity screening for Skeletonema Costatum (ISO 10253; 2006). The format is cell-based. As to conditions: exposure of 72 hr.
Source text: In addition to biodegradation in seawater other tests to be conducted are the toxicity test with Acardia Tonsa (ISO14669; 1999), providing a median lethal concentration (LC50) after an exposure of 48 hr, toxicity test with Skeletonema Costatum (ISO 10253; 2006), providing a median effect concentration (EC50/EL50) after an exposure of 72 hr, toxicity test with Scophthalmus Maximus (PARCOM 2006), providing the mortality of fish after 96 hr at EC50 value and bioaccumulation potential (OECD Guidelines for Testing of Chemicals, 117), providing the logarithm of n-octanol/water partition coefficient.
as §1

This is an account of results in US9856732B2, “Tracers” (RESTRACK AS, priority 2012, dated 2018).

In the case of `OCc1c(F)cccc1F` [2,6-DFBOH, 2,6-difluorobenzyl alcohol], the “partition coefficient K” value in data set [1] is reported as 1.5. In addition, in data set [2], the “Biodegradability BOD28” value came out at 0%.

On to `OCc1c(F)cc(F)cc1F` [2,4,6-TFBOH, 2,4,6-trifluorobenzyl alcohol], for which the “partition coefficient K” value in data set [1] is listed as 2.4. Moreover, in data set [2], the “Biodegradability BOD28” value is reported as 0-3%.

In the case of `OCc1cc(F)cc(F)c1` [3,5-DFBOH, 3,5-difluorobenzyl alcohol], in data set [1], the “partition coefficient K” value worked out at 2.9. Further, the “Biodegradability BOD28” value in data set [2] came out at 2%.

Take `OCc1ccccc1F` [2-FBOH, 2-fluorobenzyl alcohol]: the “partition coefficient K” value in data set [1] is reported as 1.5.

`OCc1ccc(F)cc1` [4-FBOH]: the “Toxicity EL50” value in data set [3] is reported as “Ca 10 mg/L”. The “Biodegradability BOD28” value in data set [2] is 3%.

Turning to `OCc1c(F)ccc(F)c1F` [2,3,6-TFBOH, 2,3,6-trifluorobenzyl alcohol], the “partition coefficient K” value in data set [1] turned out to be 1.9. In addition, the “Biodegradability BOD28” value in data set [2] stood at 2%.

`OCc1ccc(F)c(F)c1` [3,4-DFBOH, 3,4-difluorobenzyl alcohol]: in data set [1], the “partition coefficient K” value was 2.1.
